Data from publication PMC12466451 (Antibiotics, 2025).

Test: Surfactin C metabolism study: metabolic stability in liver microsomes with NADPH
Type: in vitro ADME, chicken
Settings: for percentage of initial concentration remaining after incubation with microsomes: chicken liver microsomes 0.5 mg/mL, NADPH, 1.0 µM, 37 °C, 120 min; for k (elimination rate constant) / t1/2: chicken liver microsomes; for k (elimination rate constant): slope of ln-concentration versus time plot, 0-120 min; for t1/2: t1/2 = ln(2)/k
Experimental: After determining the presence of surfactin C analogues in F1, BPR-17 and BPR-16, an in vitro metabolism assay was conducted to investigate the bioavailability and stability of these compounds. This study involved incubating the bioactive metabolites with liver microsomes obtained from chickens to predict and evaluate their potential efficacy and bioavailability once digested. The microsomal assay was performed by first harvesting the chicken microsomes from the liver. Once obtained, these were incubated with the surfactin C compounds in the presence of NADPH, which serves as an essential cofactor for cytochrome P450 enzymes. The degradation of surfactin C analogues over time was monitored by measuring their peak areas using LC-MS/MS [29]. Additionally, a positive control compound (verapamil) was used to confirm the metabolic activity of the liver microsomes.
Preparation of microsomes from liver tissue was performed according to the protocols developed by Knights et al. 2016 [45]. Livers from chickens approximately 42 days old were obtained from Golden Cockerel poultry processors (Mount Cotton, QLD, Australia). Immediately after harvesting, the livers were washed in 1.15% KCl in lab grade H2O to remove excess blood and transported to the laboratory on ice for processing. To prepare the microsomes, 10 g of liver tissue was homogenized in buffer (10 mM potassium phosphate, pH 7.4) using an Ultraturrax-style homogeniser with three 30-s bursts, cooling the sample on ice between each burst. The homogenate was then centrifuged at 7000× g for 10 min at 4 °C. The crude pellet was discarded, and the supernatant was further separated by ultracentrifugation at 105,000× g for 60 min at 4 °C. The supernatant was decanted, and the pellet was rinsed with 1 mL of microsome buffer. The rinsing and ultracentrifugation process was repeated twice, and the resulting pellet was resuspended in microsome storage buffer and stored at −80 °C until further use. A Bradford assay was used to determine the concentration of the protein in the sample [46].
The test compounds C13-C1_6 surfactin C (10.0 mM) were prepared in DMSO, and the metabolic stability of test compounds was determined in triplicate in an oscillating water bath (Grant) at 37 °C and 150 RPM [25]. Positive control (verapamil; 0.001 mM) and negative control (without NADPH regeneration system) incubations were conducted concurrently. Tubes containing potassium phosphate buffer (100 mM) at pH 7.4, microsomal protein stock solution (0.5 mg/mL), test compound solution (1.0 µM) and glucose-6-phosphate dehydrogenase (1 IU/mL) were preincubated at 37 °C for 5 min prior to the reaction being initiated by the addition of 25 µL of a 20× stock of an NADPH regeneration system (NRS) containing NADP (1.3 mM). The total incubation volume was 0.5 mL. The mixture was then incubated at 37 °C in an oscillating water bath (Grant) at 150 RPM for 0, 10, 20, 30, 60, and 120 min. At each time point, reactions were terminated by the addition of 150 µL of ice-cold acetonitrile containing cyclosporin A (60 ng/mL) as an internal standard for test compounds or clotrimazole (50 ng/mL) for verapamil. The test tubes were centrifuged at 13,000× g for 5 min, and ~100 µL of supernatant was transferred to polypropylene 96-well plates for LC-MS/MS analysis using a Waters ALLIANCE HPLC system coupled to a Waters Quattro Micro triple quadrupole mass spectrometer (Milford, MA, USA). Chromatographic separation was achieved using a Phenomenex HPLC C18 column (4.6 × 50 mm, 3 µm). Mass spectrometric detection was performed in negative ion multiple reaction monitoring mode with argon as the collision gas. Data acquisition and processing were carried out using MassLynx software (version 4.1, Waters). The half-life (t1/2) of each test compound was calculated using the equation t1/2 = ln(2)/k, where k is the elimination rate constant derived from the slope obtained from the ln-concentration versus time plot.

Substance: C14 surfactin C
- percentage of initial concentration remaining after incubation with microsomes: ~95%

Substance: C16 surfactin C
- percentage of initial concentration remaining after incubation with microsomes: ~92%
- k (elimination rate constant): 0.0007
- t1/2: 16.5 h

Substance: C15 surfactin C
- percentage of initial concentration remaining after incubation with microsomes: ~99%
- k (elimination rate constant): 0.0008
- t1/2: 14.438 h

Substance: C13 surfactin C
- percentage of initial concentration remaining after incubation with microsomes: approximately 84%
- t1/2: 19.25 h
